According to EP2078717A1, “6-Pyrimidinyl-pyrimid-2-one derivative” (sanofi-aventis, priority 2008, dated 2009):
Where two headings read alike, the source gives them in different places.

Tests used:
[1] = system: tau phosphorylation; experiment: Inhibitory activity on tau phosphorylation in vivo (pS396 Western blot of cortex); design: species or system male CD-1 mice; details: 10 mg/kg p.o., cortex removed after 1 hour, pS396 antibody; ** means statistically significant
Protocol: Experiment 7 : Inhibitory activity on tau phosphorylation in vivo
Test compound was administrated to male CD-1 mice of 5-6 weeks weighing 25-35 g (Charles River Japan, inc.) at 10 mg/kg p.o. (0.5% polyethylene glycol sorbitan monolaurate 80 (Tween80)/water suspension) and after 1 hour, mice were decapitated and cortex was promptly removed, followed by being frozen in liquid nitrogen. […] Protein concentrations were determined using DC protein assay kit (BIO-RAD). Supernatants were diluted with sample buffer (62.5 mM Tris-HCl, 25% glycerol, 2% SDS, 0.01% Bromophenol Blue, pH 6.8) to adjust the protein concentrations around […] and then boiled for 5 minutes. Samples (10 µ g) were separated on 10% sodium dodecyl sulfate-polyacrylamide electrophoresis (SDS-PAGE) mini slab gels and transferred onto polyvinylidene difluoride (PVDF) membranes. Membranes were incubated with phosphate buffered saline (PBS) containing 5% non-fat milk for 1 hour at room temperature and then probed with pS396 anti-body (BIOSOURCE) over night at 4 °C. Anti-rabbit IgG horseradish peroxidase (HRP) conjugated antibody (Promega) was used as secondary antibody. Membranes were visualized by Enhanced ChemiLuminescence (ECL) kit (Amersham Bioscience) and detected by LAS 1000 (Fuji Photo Film).

[2] = system: normal mice; experiment: Object recognition (OR) test of episodic memory in normal mice; format: in vivo; details: for minimal effective dose: Mus musculus, po
[3] = system: scopolamine-treated mice; experiment: Object recognition (OR) test of episodic memory in scopolamine-treated mice; details: for recognition index (RI): scopolamine 1 mg/kg 30 minutes before acquisition, 3 hours inter-trial interval

SMILES: Cn1c(N2CCOC(c3nc(-c4ccccc4)no3)C2)nc(-c2ccncn2)cc1=O (centres unmarked) [compound 1]
- in vivo 10 mg/kg, % phosphorylation against vehicle [1]: 92.12%

SMILES: Cn1c(N2CCOC(c3ccc(-c4ccoc4)cc3)C2)nc(-c2ccncn2)cc1=O (centres unmarked) [compound 3, 2-[2-(4-Furan-3-yl-phenyl)-morpholin-4-yl]-1-methyl-1H-[4,4']bipyrimidinyl-6-one]
- in vivo 10 mg/kg, % phosphorylation against vehicle [1]: 71.44%

SMILES: Cn1c(N2CCOC(c3noc(-c4ccccc4)n3)C2)nc(-c2ccncn2)cc1=O (centres unmarked) [compound 2, 1-Methyl-2-[2-(5-phenyl-[1,2,4]oxadiazol-3-yl)-morpholin-4-yl]-1H-[4,4']bipyrimidinyl-6-one]
- in vivo 10 mg/kg, % phosphorylation against vehicle [1]: 79.21%

SMILES: Cn1c(N2CCOC(c3ccc(-n4cccn4)cc3)C2)nc(-c2ccncn2)cc1=O (centres unmarked) [compound 5, 1-Methyl-2-[2-(4-pyrazol-1-yl-phenyl)-morpholin-4-yl]-1H-[4,4']bipyrimidinyl-6-one]
- in vivo 10 mg/kg, % phosphorylation against vehicle [1]: 53.35** %

SMILES: Cn1ccnc1-c1ccc(C2CN(c3nc(-c4ccncn4)cc(=O)n3C)CCO2)cc1 (centres unmarked) [compound 4, 1-Methyl-2-{2-[4-(1-methyl-1H-imidazol-2-yl)-phenyl]-morpholin-4-yl}-1H-[4,4']bipyrimidinyl-6-one]
- in vivo 10 mg/kg, % phosphorylation against vehicle [1]: 71.21%

SMILES: Cc1nc(-c2ccc([C@H]3CN(c4nc(-c5ccncn5)cc(=O)n4C)CCO3)cc2)no1 [Compound of the present invention]
- in vivo 10 mg/kg, % phosphorylation against vehicle [1]: 58.14** %
- recognition index (RI) ([2]; 1 mg/kg p.o. 1 hour before acquisition and retention sessions, 24 hours inter-trial interval): 50.3%
- recognition index (RI) ([2]; 3 mg/kg p.o. 1 hour before acquisition and retention sessions, 24 hours inter-trial interval): 52.6%
- recognition index (RI) ([2]; 3 mg/kg p.o. once immediately after the acquisition phase, 24 hours inter-trial interval): 54.6%
- recognition index (RI) ([2]; 10 mg/kg p.o. 1 hour before acquisition and retention sessions, 24 hours inter-trial interval): 60.4%
- recognition index (RI) ([2]; 10 mg/kg p.o. once immediately after the acquisition phase, 24 hours inter-trial interval): 58.6%
- recognition index (RI) ([2]; 30 mg/kg p.o. 1 hour before acquisition and retention sessions, 24 hours inter-trial interval): 62.9%
- recognition index (RI) ([2]; 30 mg/kg p.o. once immediately after the acquisition phase, 24 hours inter-trial interval): 60.0%
- minimal effective dose ([2]; normal mice, summary, read-out: minimal effective dose, increases episodic memory and consolidates episodic memory trace): 10 mg/kg
- minimal effective dose ([2]; p.o. 1 hour before acquisition and retention sessions, 24 hours inter-trial interval, read-out: dose from which memory performance increased significantly): ≥ 10 mg/kg
- minimal effective dose ([2]; p.o. once immediately after the acquisition phase, read-out: minimal effective dose, consolidation of episodic memory): 10 mg/kg
- recognition index (RI) ([2]; normal mice of the scopolamine experiment, 10 mg/kg p.o. 1 hour before acquisition, 3 hours inter-trial interval): 61.7%
- recognition index (RI) ([2]; normal mice of the scopolamine experiment, 30 mg/kg p.o. 1 hour before acquisition, 3 hours inter-trial interval): 59.7%
- minimal effective dose ([3]; Mus musculus, po, read-out: Minimal Effective Dose, prevention of episodic memory deficits): 10 mg/kg
- recognition index (RI) ([3]; 10 mg/kg p.o. 1 hour before acquisition): 52.7%
- recognition index (RI) ([3]; 30 mg/kg p.o. 1 hour before acquisition): 60.4%
- effect on episodic memory deficits induced by scopolamine ([3]; single oral administration 3mg/kg): ineffective
- effect on episodic memory deficits induced by scopolamine ([3]; single oral administration 10 mg/kg, 30 minutes before scopolamine, 1 hour before acquisition): totally reversed
